Test results from US20160214983A1, “3,7-DIAZABICYCLO[3.3.1]NONANE CARBOXAMIDES AS ANTITHROMBOTIC AGENTS” (COUNCIL OF SCIENTIFIC & INDUSTRIAL RESEARCH, priority 2013, published 2016).
Values joined by “and” are separate entries in the source; they are usually repeats but may differ in a detail not shown here. Equal values may be shown once.

Key:
[1] = test system: collagen plus epinephrine induced pulmonary thromboembolism; assay: Collagen-epinephrine induced pulmonary thromboembolism in mice; type: in vivo
Protocol: To assess the antithrombotic efficacy of compounds, mice were grouped into vehicle, aspirin and compound treated groups, and each group included ten animals. Pulmonary thromboembolism was induced by injecting a mixture of collagen (150 μg/ml) and adrenaline (50 μg/ml) into the tail vein to achieve final doses of collagen (1.5 mg/kg) and adrenaline (0.5 mg/kg) to induce hind limb paralysis or death.^11, 12 Number of test animals killed or paralyzed were evaluated (death/paralysis were employed as endpoint to evaluate antithrombotic agents). The percent protection was calculated by taking the ratio of number of test animals killed or paralyzed to that of total tested animals. Results have been reported as percentage protection, which represents protection against collagen and epinephrine induced thromboembolism and expressed as;
Percent Protection=[1−(Ptest/Pcontrol)]×100
Where, Ptest is the number of animals paralyzed/dead in test compound-treated group, and Pcontrol is the total number of animals paralyzed/dead in vehicle treated group. The percent protection refers to the number of animals in compound treated group that were prevented from paralysis/death.

[2] = test system: ferric chloride induced arterial thrombosis; assay: FeCl3 induced carotid artery thrombosis in mice; type: in vivo; settings: 1d 4 hr after oral administration, control 9.5±0.4 min
Protocol: Male Swiss albino mice were anesthetized byurethane (1.25 g/kg, i.p.). The carotid artery was carefully dissected and a pulsed Doppler Probe (LDF 100C, BioPac, USA) was placed around it to record the blood flow velocity and patency of the blood vessels. The carotid artery thrombosis was induced by FeCl3 as follows: a square (1×0.5 mm) of Whatman Chromatography paper was immersed in 10% FeCl3 solution for 5 min and placed on the carotid artery as described earlier. (Kurz K D, et al., Thromb Res 1990; 60(4):269-80; Surin W R et al J Pharmacol Toxicol Methods. 2010; 61(3):287-91) Thrombosis was monitored as the reduction in carotid artery blood flow. The time at which the blood-flow velocity was decreased to zero was recorded as the time to occlusion (TTO) of the carotid artery.

[3] = test system: human platelets; assay: Collagen induced platelet aggregation in human platelets (in vitro); type: cell-based; settings: compound concentration 30 μM, n = 3; for inhibition at 30 µM: Homo sapiens, Platelet
[4] = Mus musculus, po, 1 h, read-out: Protection (%)

Row | Structure (SMILES) | inhibition in vivo at 30 µM, 30 µmol/kg [1, 4] [%] | inhibition at 30 µM [3] [%] | also measured
1 | CC(=O)Oc1ccccc1C(=O)O [Aspirin, reference compound] |  |  | inhibition in vivo at 170 µM, 170 µmol/kg [1, 4]: 40%; Protection (%) ([1]; mice, Aspirin at 170 μm (text: 170 μM/kg)): 40 (at 170 μm) % and 40 (at %
2 | COC(=O)[C@H](c1ccccc1Cl)N1CCc2sccc2C1 [Clopidogrel, reference compound] |  |  | time to occlusion (TTO) of carotid artery [2]: ≤ 23 ± 0.9 min
3 | CC(C)(C)OC(=O)N1CC2CC(C1)CN(C(=O)[C@@H]1CCC(=O)N1Cc1ccccc1)C2 [Compound 1a, 7-(1-Benzyl-5-oxo-pyrrolidine-2-carbonyl)-3,7-diaza-bicyclo[3.3.1]nonane-3-carboxylic acid tert-butyl ester] | 40 | 6 ± 14 | 
4 | CC(C)(C)OC(=O)N1CC2CC(C1)CN(C(=O)[C@@H]1CCC(=O)N1Cc1ccccc1Br)C2 [Compound 1b, 7-[1-(2-Bromo-benzyl)-5-oxo-pyrrolidine-2-carbonyl]-3,7-diaza-bicyclo[3.3.1]nonane-3-carboxylic acid tert-butyl ester] | 50 |  | Inhibition (%) of collagen induced platelet aggregation [3]: Ns
5 | O=C([C@@H]1CCC(=O)N1Cc1ccccc1)N1CC2CC(CN(Cc3ccccc3)C2)C1 [Compound 1c, 1-Benzyl-5-(7-benzyl-3,7-diaza-bicyclo[3.3.1]nonane-3-carbonyl)-pyrrolidin-2-one] | 30 | 44 ± 13 | 
6 | Cc1ccc(CN2C(=O)CC[C@H]2C(=O)N2CC3CC(CN(C(=O)OC(C)(C)C)C3)C2)cc1 [Compound 1e, 7-[1-(4-Methyl-benzyl)-5-oxo-pyrrolidine-2-carbonyl]-3,7-diaza-bicyclo[3.3.1]nonane-3-carboxylic acid tert-butyl ester] | 40 | 25 ± 9 | 
7 | Cc1ccc(CN2C(=O)CC[C@H]2C(=O)N2CC3CC(CN(Cc4ccccc4)C3)C2)cc1 [Compound 1f, 5-(7-Benzyl-3,7-diaza-bicyclo[3.3.1]nonane-3-carbonyl)-1-(4-methyl-benzyl)-pyrrolidin-2-one] | 25 | 7 ± 7 | 
8 | O=C([C@@H]1CCC(=O)N1Cc1c(Cl)cccc1Cl)N1CC2CC(CN(Cc3ccccc3)C2)C1 [Compound 1g, (5S)-5-(7-benzyl-3,7-diazabicyclo[3.3.1]nonane-3-carbonyl)-1-(2,6-dichlorobenzyl)pyrrolidin-2-one] | 40 | 57 to 86 | 
9 | O=C([C@@H]1CCC(=O)N1Cc1ccc(Cl)cc1)N1CC2CC(CN(Cc3ccccc3)C2)C1 [Compound 1h] | 30 | 57 to 86 | 
10 | Cc1ccc(S(=O)(=O)N2C(=O)CC[C@H]2C(=O)N2CC3CC(CN(Cc4ccccc4)C3)C2)cc1 [Compound 1i, (5S)-5-(7-benzyl-3,7-diazabicyclo[3.3.1]nonane-3-carbonyl)-1-tosylpyrrolidin-2-one] | 30 | 29 ± 1 | 
11 | CC(C)(C)OC(=O)N1CC2CC(C1)CN(C(=O)[C@@H]1CCC(=O)N1Cc1ccc(C#N)cc1)C2 [Compound 1j, tert-butyl-7-((S)-1-(4-cyanobenzyl)-5-oxopyrrolidine-2-carbonyl)3,7diazabicyclo[3.3.1]nonane-3-carboxylate] | 55 | 11 ± 3 | 
12 | CC(C)(C)OC(=O)N1CC2CC(C1)CN(C(=O)[C@@H]1CCC(=O)N1Cc1ccc(Cl)cc1)C2 [Compound 1k, tert-butyl 7-((S)-1-(4-chlorobenzyl)-5-oxopyrrolidine-2-carbonyl)-3,7-diazabicyclo [3.3.1]nonane-3-carboxylate] | 30 | 6 ± 11 | 
13 | CC(C)(C)OC(=O)N1CC2CC(C1)CN(C(=O)[C@@H]1CCC(=O)N1Cc1c(Cl)cccc1Cl)C2 [Compound 1l, tert-butyl 7-((S)-1-(2,6-dichlorobenzyl)-5-oxopyrrolidine-2-carbonyl)-3,7-diazabicyclo [3.3.1]nonane-3-carboxylate] | 30 | 3 ± 3 | 
14 | COc1ccc(CN2C(=O)CC[C@H]2C(=O)N2CC3CC(CN(C(=O)OC(C)(C)C)C3)C2)cc1 [Compound 1m, tert-butyl-7-((S)-1-(4-methoxybenzyl)-5-oxopyrrolidine-2-carbonyl)-3,7-diazabicyclo[3.3.1]nonane-3-carboxylate] | 45 | 10 ± 3 | 
15 | O=C([C@@H]1CCC(=O)N1Cc1ccc(Br)cc1)N1CC2CC(CN(Cc3ccccc3)C2)C1 [Compound 1o, (5S)-5-(7-(4-benzyl)-3,7-diazabicyclo[3.3.1]nonane-3-carbonyl)-1-(4-bromobenzyl)pyrrolidin-2-one] | 40 | 57 to 86 | 
16 | COc1ccc(CN2C(=O)CC[C@H]2C(=O)N2CC3CC(CN(Cc4ccccc4)C3)C2)cc1 [Compound 1p] | 30 | 10 ± 4 | 
17 | O=C(c1ccccc1)N1CC2CC(C1)CN(C(=O)[C@@H]1CCC(=O)N1Cc1ccccc1Br)C2 [Compound 1q, 5-(7-Benzoyl-3,7-diaza-bicyclo[3.3.1]nonane-3-carbonyl)-1-(2-bromo-benzyl)-pyrrolidin-2-one] | 60 | 25.6 ± 3.55 | 
18 | Cc1ccc(S(=O)(=O)N2CC3CC(CN(C(=O)[C@@H]4CCC(=O)N4Cc4ccccc4Br)C3)C2)cc1 [Compound 1r, 1-(2-Bromo-benzyl)-5-[7-(toluene-4-sulphonyl)-3,7-diaza-bicyclo[3.3.1]nonane-3-carbonyl]-pyrrolidin-2-one] | 55 | 16.8 ± 5.66 | 
19 | Cc1ccc(CN2C(=O)CC[C@H]2C(=O)N2CC3CC(CN(C(=O)c4ccccc4)C3)C2)cc1 [Compound 1s, 5-(7-Benzoyl-3,7-diaza-bicyclo[3.3.1]nonane-3-carbonyl)-1-(4-methyl-benzyl)-pyrrolidin-2-one] | 40 | 20.5 ± 7.5 | 
20 | Cc1ccc(CN2C(=O)CC[C@H]2C(=O)N2CC3CC(C2)CN(S(=O)(=O)c2ccc(C)cc2)C3)cc1 [Compound 1t, 1-(4-Methyl-benzyl)-5-[7-(toluene-4-sulphonyl)-3,7-diaza-bicyclo[3.3.1]nonane-3-carbonyl]-pyrrolidin-2-one] | 40 | 37.5 ± 10.5 | 
21 | Cc1ccc(CN2C(=O)CC[C@H]2C(=O)N2CC3CC(CN(Cc4ccccc4Br)C3)C2)cc1 [Compound 1u, (5S)-5-(2-bromobenzyl-3,7-diazabicyclo[3.3.1]nonane-3-carbonyl)-1-(4-methylbenzyl)pyrrolidin-2-one] | 30 | 57 to 86 | 
22 | Cc1ccc(CN2C(=O)CC[C@H]2C(=O)N2CC3CC(CN(Cc4ccc(Br)cc4)C3)C2)cc1 [Compound 1v, (5S)-5-(7-(4-bromobenzyl)-3,7-diazabicyclo[3.3.1]nonane-3-carbonyl)-1-(4-methylbenzyl)pyrrolidin-2-one] | 50 | 57 to 86 | 
23 | Cc1ccc(CN2C(=O)CC[C@H]2C(=O)N2CC3CC(CN(Cc4ccc(Cl)cc4)C3)C2)cc1 [Compound 1w, (5S)-5-(7-(4-chlorobenzyl)-3,7-diazabicyclo[3.3.1]nonane-3-carbonyl)-1-(4-methylbenzyl)pyrrolidin-2-one] | 35 | 57 to 86 | 
24 | CC(C)[C@H](NC(=O)OCc1ccccc1)C(=O)N1CC2CC(CN(Cc3ccccc3)C2)C1 [Compound 1x, Benzyl(2S)-1-(7-benzyl-3,7-diazabicyclo[3.3.1]nonan-3-yl)-3-methyl-1-oxobutan-2-yl carbamate] | 20 | 18 ± 4 | 
25 | O=C(N[C@@H](Cc1ccccc1)C(=O)N1CC2CC(CN(Cc3ccccc3)C2)C1)OCc1ccccc1 [Compound 1y, Benzyl(2S)-1-(7-benzyl-3,7-diazabicyclo[3.3.1]nonan-3-yl)-1-oxo-3-phenylpropan-2-yl carbamate] | 55 | 22 ± 5 | 
26 | CC(C)C[C@H](NC(=O)OCc1ccccc1)C(=O)N1CC2CC(CN(Cc3ccccc3)C2)C1 [Compound 1z, Benzyl(2S)-1-(7-benzyl-3,7-diazabicyclo[3.3.1]nonan-3-yl)-4-methyl-1-oxopentan-2-ylcarbamate] | 40 | 12 ± 10 | 
